# Laboratory results published in PubChem BioAssay (NCI).
#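 Values below derive from 48-hour exposures of cells grown in 96-well plates, with endpoints linearly interpolated between the two concentrations bracketing the appropriate inhibition level. The concentration for 50% growth inhibition is given as GI50. The concentration for full growth arrest is given as TGI.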
# Assays:
# Experiment in all cases: growth of human tumour cells (NCI), 48 h
# [1] = system: 786-0 renal
# [2] = system: A498 renal
# [3] = system: A549 NSCLC
# [4] = system: ACHN renal
# [5] = system: BT-549 breast
# [6] = system: CAKI-1 renal
# [7] = system: CCRF-CEM leukemia
# [8] = system: COLO 205 colon
# [9] = system: DU-145 prostate
# [10] = system: EKVX NSCLC
# [11] = system: HCC-2998 colon
# [12] = system: HCT-116 colon
# [13] = system: HCT-15 colon
# [14] = system: HL-60(TB) leukemia
# [15] = system: HOP-62 NSCLC
# [16] = system: HOP-92 NSCLC
# [17] = system: HS 578T breast
# [18] = system: HT29 colon
# [19] = system: IGROV1 ovarian
# [20] = system: K-562 leukemia
# [21] = system: KM12 colon
# [22] = system: LOX IMVI melanoma
# [23] = system: M14 melanoma
# [24] = system: MALME-3M melanoma
# [25] = system: MCF7 breast
# [26] = system: MDA-MB-231 breast
# [27] = system: MDA-MB-435
# [28] = system: MDA-MB-468 breast
# [29] = system: MOLT-4 leukemia
# [30] = system: NCI-H226 lung
# [31] = system: NCI-H23 lung
# [32] = system: NCI-H460 lung
# [33] = system: NCI-H522 lung
# [34] = system: OVCAR-3 ovarian
# [35] = system: OVCAR-4 ovarian
# [36] = system: OVCAR-5 ovarian
# [37] = system: OVCAR-8 ovarian
# [38] = system: PC-3 prostate
# [39] = system: RPMI-8226 leukemia
# [40] = system: RXF 393 renal
# [41] = system: SF-268 CNS
# [42] = system: SF-295 CNS
# [43] = system: SF-539 CNS
# [44] = system: SK-MEL-2 melanoma
# [45] = system: SK-MEL-28 melanoma
# [46] = system: SK-MEL-5 melanoma
# [47] = system: SK-OV-3 ovarian
# [48] = system: SN12C renal
# [49] = system: SNB-19 CNS
# [50] = system: SNB-75 CNS
# [51] = system: SR leukemia
# [52] = system: SW-620 colon
# [53] = system: T-47D breast
# [54] = system: TK-10 renal
# [55] = system: U251 CNS
# [56] = system: UACC-257 melanoma
# [57] = system: UACC-62 melanoma
# [58] = system: UO-31 renal
smiles,measurement,setting,value
COc1ccccc1[C@H]1C(C(=O)c2ccc(Cl)cc2)C2(N[C@@H]1c1ccccc1)C(=O)Nc1ccc(Cl)cc12 (stereo not given in full),GI50,[1],8.96 µM
same,TGI,[1],35.5 µM
same,GI50,[2],15.3 µM
same,TGI,[2],52.1 µM
same,GI50,[3],2.76 µM
same,TGI,[3],> 57.5 µM
same,GI50,[4],6.62 µM
same,TGI,[4],53.7 µM
same,GI50,[5],1.35 µM
same,TGI,[5],18.6 µM
same,GI50,[6],1.68 µM
same,TGI,[6],> 57.5 µM
same,GI50,[7],2.14 µM
same,TGI,[7],> 57.5 µM
same,GI50,[8],9.92 µM
same,TGI,[8],21.1 µM
same,GI50,[9],2.56 µM
same,TGI,[9],> 57.5 µM
same,GI50,[10],8.12 µM
same,TGI,[10],> 57.5 µM
same,GI50,[11],9.77 µM
same,TGI,[11],43.8 µM
same,GI50,[12],2.13 µM
same,TGI,[12],> 57.5 µM
same,GI50,[13],6.98 µM
same,TGI,[13],> 57.5 µM
same,GI50,[14],1.77 µM
same,TGI,[14],25.2 µM
same,GI50,[15],9.31 µM
same,TGI,[15],> 57.5 µM
same,GI50,[16],4.52 µM
same,TGI,[16],37.1 µM
same,GI50,[17],2.56 µM
same,TGI,[17],34.2 µM
same,GI50,[18],1.73 µM
same,TGI,[18],7.91 µM
same,GI50,[19],9.15 µM
same,TGI,[19],> 57.5 µM
same,GI50,[20],1.78 µM
same,TGI,[20],> 57.5 µM
same,GI50,[21],8.36 µM
same,TGI,[21],> 57.5 µM
same,GI50,[22],1.72 µM
same,TGI,[22],21.2 µM
same,GI50,[23],3.55 µM
same,TGI,[23],> 57.5 µM
same,GI50,[24],7.44 µM
same,TGI,[24],21.1 µM
same,GI50,[25],2 µM
same,TGI,[25],> 57.5 µM
same,GI50,[26],1.36 µM
same,TGI,[26],12.5 µM
same,GI50,[27],1.82 µM
same,TGI,[27],8.94 µM
same,GI50,[28],1.38 µM
same,TGI,[28],16.2 µM
same,GI50,[29],1.92 µM
same,TGI,[29],> 57.5 µM
same,GI50,[30],8.32 µM
same,TGI,[30],> 57.5 µM
same,GI50,[31],8.68 µM
same,TGI,[31],> 57.5 µM
same,GI50,[32],2.32 µM
same,GI50,[33],1.3 µM
same,TGI,[33],5.51 µM
same,GI50,[34],2.76 µM
same,TGI,[34],> 57.5 µM
same,GI50,[35],10.4 µM
same,TGI,[35],> 57.5 µM
same,GI50,[36],8.44 µM
same,TGI,[36],> 57.5 µM
same,GI50,[37],7.52 µM
same,TGI,[37],> 57.5 µM
same,GI50,[38],1.46 µM
same,TGI,[38],> 57.5 µM
same,GI50,[39],5.91 µM
same,TGI,[39],50.7 µM
same,GI50,[40],1.66 µM
same,TGI,[40],13.8 µM
same,GI50,[41],9.79 µM
same,TGI,[41],> 57.5 µM
same,GI50,[42],3.43 µM
same,TGI,[42],> 57.5 µM
same,GI50,[43],8.51 µM
same,TGI,[43],30.3 µM
same,GI50,[44],4.08 µM
same,TGI,[44],13.6 µM
same,GI50,[45],16.7 µM
same,TGI,[45],> 57.5 µM
same,GI50,[46],2.69 µM
same,TGI,[46],10.6 µM
same,GI50,[47],5.17 µM
same,TGI,[47],> 57.5 µM
same,GI50,[48],2.83 µM
same,TGI,[48],13.5 µM
same,GI50,[49],14 µM
same,TGI,[49],> 57.5 µM
same,GI50,[50],2.27 µM
same,TGI,[50],> 57.5 µM
same,GI50,[51],1.86 µM
same,TGI,[51],26.6 µM
same,GI50,[52],4.28 µM
same,TGI,[52],> 57.5 µM
same,GI50,[53],4.61 µM
same,TGI,[53],> 57.5 µM
same,GI50,[54],15.8 µM
same,TGI,[54],> 57.5 µM
same,GI50,[55],2.86 µM
same,TGI,[55],> 57.5 µM
same,GI50,[56],4.86 µM
same,TGI,[56],> 57.5 µM
same,GI50,[57],1.72 µM
same,TGI,[57],8.69 µM
same,GI50,[58],2.26 µM
same,TGI,[58],> 57.5 µM
